The source of these data is PubChem BioAssay AID1996.

The structures appear in SMILES notation. In brackets after ≈: the same amount, converted by molar mass. Bounds are passed on as bounds.

The conditions of this series: buffer; pH 7.4; 200.0 µM.
As to `Cc1ccc2c(COC(=O)CNS(=O)(=O)c3ccccc3)cc(=O)oc2c1`, the solubility (kinetic) (usually the concentration staying in solution when a stock, usually in DMSO, is diluted into the medium) came to 21.6 µg/mL (≈ 55.8 µM).
With `O=C(CN1C(=O)C(=O)N(C2CCCC2)C1=O)Nc1ccccc1OC(F)F` the figure was > 57.2 µg/mL; with `Oc1c(CN2CCCC(C(F)(F)F)C2)cc(Cl)c2ccccc12` (stereo not drawn), 4.1 µg/mL (≈ 11.9 µM); with `C=CCN(Cc1cccc(OC)c1OC)C(=O)Oc1ccccc1`, 9.6 µg/mL (≈ 29.3 µM).
In the case of `Cc1ccc(C)c(C(C)NC(=O)C2CC=CCC2C(=O)O)c1` (stereo not drawn), the kinetic solubility was > 45.2 µg/mL.
For the compound `CN(C)C(=O)CSc1nc2ccc(N3C(=O)c4ccccc4C3=O)cc2s1`, the solubility (kinetic) is 3.1 µg/mL (≈ 7.8 µM).
With `CCCc1nc(NCCO)c(C#N)c2c1CCCC2` the figure was > 38.9 µg/mL; with `CC1CCN(C(=O)CSCC(=O)O)CC1`, > 34.7 µg/mL; with `CC(C)NC(=O)COc1cccc2ccccc12`, 31.8 µg/mL (≈ 131 µM).
With `S=C(Cc1ccc(-c2ccccc2)cc1)N1CCOCC1` the figure was 0.7 µg/mL (≈ 2.35 µM); with `S=C(NCC1CCCO1)NC1CC1` (stereo not drawn), > 30 µg/mL; with `O=[N+]([O-])c1ccc(N2CCCCC2)cc1`, 19.9 µg/mL (≈ 96.5 µM).
With `Cc1ccc(S(=O)(=O)NCc2ccccn2)cc1C` the figure was > 41.5 µg/mL; with `Cc1cccc(N2C(=O)C3C4C=CC(C5CC45)C3C2=O)n1` (stereo not drawn), 36.5 µg/mL (≈ 130 µM); with `COc1ccc(CCNC(=O)c2ccc(=O)[nH]c2)cc1OC`, > 45.3 µg/mL.
`NS(=O)(=O)c1ccc(NC(=O)CCC(=O)c2cccs2)cc1` yielded a solubility (kinetic) of 14.7 µg/mL (≈ 43.4 µM).
With `O=C(CCCC(=O)c1ccccc1)NCc1ccccc1` the figure was > 42.2 µg/mL.
With `O=C(CCN1C(=O)c2ccccc2C1=O)NCc1ccccc1` the figure was > 46.3 µg/mL; with `COc1ccc(C(=O)OCC(=O)NC2CCCC2)cc1OC`, > 46.1 µg/mL; with `O=C(NC1CCN(C(=O)Nc2cccc(Cl)c2)CC1)c1ccccc1`, 0.4 µg/mL (≈ 1.12 µM).
With `CC(C)C(=O)N1CC(=O)Nc2ccc(F)cc2C1c1ccc(F)cc1` (stereo not drawn) the figure was > 51.7 µg/mL; with `COCCn1c(N)c(Sc2ccc(Cl)cc2)c(=O)[nH]c1=O`, 47.4 µg/mL (≈ 145 µM).
Regarding `CCC(=O)Nc1ccc2c(c1)nc(CCN1CCC(C)CC1)n2C`, the kinetic solubility was > 49.3 µg/mL.
With `Cc1sc2nc[nH]c(=O)c2c1-c1ccc(Cl)cc1` the figure was 1.8 µg/mL (≈ 6.5 µM); with `CCC1CCC2(CC1)NC(=O)N(CC(=O)N1CCc3ccccc31)C2=O` (stereo not drawn), 3.4 µg/mL (≈ 9.57 µM).
With `Cc1ccc(CSCc2ccc(C(=O)NCCC(C)C)o2)cc1` the figure was 2.2 µg/mL (≈ 6.64 µM).
In turn, `Nc1nc(Cl)cc(Oc2ccc(Cl)cc2)n1` displayed a kinetic solubility of 1 µg/mL (≈ 3.9 µM).
With `O=C(CSc1nncn1-c1ccccc1)NC1CCCC1` the figure was > 45.4 µg/mL.
With `Cc1cc(C)c2c(=O)cc(C(F)(F)F)oc2n1` the figure was 17.3 µg/mL (≈ 71.1 µM).
With `Cc1cccc(CN2C3=NCCCN3c3ccccc32)c1.Cl` the figure was > 47.1 µg/mL; with `Cc1cc2nc(=O)c(/C=C3\C=Nc4ccccc43)c(N)n2o1`, < 0.2 µg/mL.
Compound `COc1cccc(C(=O)Nc2cccc3ccccc23)c1` gave a solubility (kinetic) of 1.5 µg/mL (≈ 5.41 µM).
With `Cc1cccc(N2CCN(C(=O)c3cc4cc(F)ccc4[nH]3)CC2)c1C` the figure was 0.6 µg/mL (≈ 1.71 µM); with `Cc1ccc(C)n1-c1ccc(C(=O)/C=C/N(C)C)cc1`, 25.6 µg/mL (≈ 95.4 µM).
With `N#Cc1ccccc1COC(=O)c1cccc(S(=O)(=O)N2CCCC2)c1` the figure was 12 µg/mL (≈ 32.4 µM); with `COc1ccccc1Nc1nc(N)nc(CN2CCC(C)CC2)n1`, > 49.3 µg/mL.
With `CC(C)CN(C(=O)c1ccco1)C1CCS(=O)(=O)C1` (stereo not drawn) the figure was > 42.8 µg/mL; with `CCOC(=O)C1CNc2cc(S(=O)(=O)CC)ccc2O1` (stereo not drawn), > 44.9 µg/mL.
As for `COc1ccccc1C1NC(=O)c2ccccc2O1` (stereo not drawn), the solubility (kinetic) is > 38.3 µg/mL.
With `O=C(NC1CCCc2ccccc21)c1cc(Cl)ccn1` (stereo not drawn) the figure was 13.2 µg/mL (≈ 46 µM); with `Brc1ccc(OCCCCN2CCCCC2)cc1`, 40.7 µg/mL (≈ 130 µM).
As for `CCN(Cc1ccccc1)C(=O)CSc1n[nH]c(N)n1`, the solubility (kinetic) was > 43.7 µg/mL.
With `CC(c1ccccc1)n1c(S(=O)(=O)O)nc2ccccc21` (stereo not drawn) the figure was 43.7 µg/mL (≈ 145 µM); with `COC(=O)c1sccc1NC(=O)Nc1cccc([N+](=O)[O-])c1`, 5.7 µg/mL (≈ 17.7 µM).
With `Cc1csc(SC(C)C(=O)NCC2CCCO2)n1` (stereo not drawn) the figure was > 43 µg/mL; with `Cc1cc(N2CC(C)OC(C)C2)nc(C(C)C)n1` (stereo not drawn), 21.9 µg/mL (≈ 87.8 µM).
With `Nc1ccc(C(=O)[O-])cc1.[K+]` the figure was 24.1 µg/mL.
`O=C(Oc1ccc(Cl)cc1)N1CCOCC1`: the solubility (kinetic) is > 36.3 µg/mL.
`Cc1ccc(N(C)C2=NC(=O)CS2)cc1Cl` came in with a kinetic solubility of 34.8 µg/mL (≈ 137 µM).
With `Nc1c(C(=O)OCC(=O)Nc2ccccc2Br)[nH]c(=O)[nH]c1=O` the figure was 25.6 µg/mL (≈ 66.8 µM); with `CCOC(=O)c1cc(CC)sc1NC(=O)COC(=O)C1CCC1`, < 0.7 µg/mL.
With `Cc1cccc2cc(C#N)c(N3CCOCC3)nc12` the figure was 1.7 µg/mL (≈ 6.71 µM).
`O=C(CCc1ccccc1)NCCc1cccs1`: the kinetic solubility is > 38.9 µg/mL.
